According to patent publication US20240376148A1, “MEDICAMENT FOR INHIBITING DIETARY OBESITY AND POLYPEPTIDE USED THEREFOR” (INSTITUTE OF ZOOLOGY, CHINESE ACADEMY OF SCIENCES, priority 2022, published 2024):

Assays:
[1] = system: UGN; test: Mice ileum immunofluorescence; type: in vivo
Method: After the ileum was taken out, it was embedded with OCT and sliced by freezing microtome. Immunofluorescence brief steps: after the sections were washed with PBS for 3 times, 4% paraformaldehyde was added, fixed at room temperature for 10 min, and then washed with PBS for 3 times; 0.5% Triton X-100 was added, permeation at room temperature for 5 min, then washed with PBS 3 times; cell blocking solution was added and blocked at room temperature for 30 min; primary anti-UGN specific antibody (1:200) was added, 4° C. overnight and washed 3 times with PBST; the secondary antibody (1:500) was added, reacted at room temperature for 2 h, washed twice with PBST and washed once with PBS. The cells were stained with […] for additional 10 minutes at 37° C. Cleaned and sealed. Microscopic observation was recorded.

[2] = system: fecal flora; test: 16s amplicon sequencing of fecal flora of SPF mice; type: in vivo; details: SPF mice feces
Method: At this time, in order to further confirm whether the reason for the weight loss of the SPF mice was related to the change of the ecological structure of the intestinal flora, the feces of mice in NC, HFD and D3 groups collected in the previous SPF mice experiment were analyzed by 16 s amplicon sequencing. sequencing method (reference: Quan, LH, et al. Myristoleic acid produced by enterococci reduces obesity through brown adipose tissue activation. Gut 69, 1239-1247 (2020).) was used to analyze the fecal flora of mice.

[3] = SPF mice feeding experiment (high-fat diet); type: in vivo, C57/B16J mice
Method: C57/B16J mice were used in the SPF mice experiment. At the beginning of the experiment, C57/B16J mice were 4 weeks old, and each weighed 15±1 g. They were raised in a room with suitable temperature and humidity control, and the light/dark cycle was 12 hours, free diet and drinking water, and fed with standard laboratory feed (also known as growth and reproduction feed, item number SPFSLFZ003, product of SPF (Beijing) Experimental Animal Technology Co., Ltd.). After one week of adaptation, they were randomly assigned to a cage, 4-6 mice per cage.
A total of 12 treatments were set up, each with 2 cages of C57/B16J mice, and each treatment was subjected to different feeding treatments, specifically as follows:
NC group (i.e. normal diet group): fed with standard laboratory feed (also known as growth and reproduction feed, SPFSLFZ003), free diet and drinking water, each intragastrically administrated with 0.2 ml solvent daily for 8 weeks.
HFD group (i.e. high-fat diet group): fed with high-fat diet, the high-fat diet used was rodent feed (containing 60% fat, D12492, formula reference Le Roy, T., et al. Dysosmobacter welbionis is a newly isolated human commensal bacterium preventing diet-induced obesity and metabolic disorders in mice. Gut (2021).), free diet and drinking water, each intragastrically administrated with 0.2 ml solvent daily for 8 weeks.
D1 group (i.e. high-fat diet+D1 intragastric administration group): fed with high-fat diet, free diet and drinking water. Intragastrically administrated with synthetic D1, 0.75 mg-3 mg/Kg body weight, 0.2 ml, once/day for 8 weeks.
D2 group (i.e. high-fat diet+D2 intragastric administration group): fed with high-fat diet, free diet and drinking water. Intragastrically administrated with synthetic D2, 0.75 mg-3 mg/Kg body weight, 0.2 ml, once/day for 8 weeks.
D3 group (i.e. high-fat diet+D3 intragastric administration group): fed with high-fat diet, free diet and drinking water. Intragastrically administrated with synthetic D3, 0.75 mg-3 mg/Kg body weight, 0.2 ml, once/day for 8 weeks.
D4 group (i.e. high-fat diet+D4 intragastric administration group): fed with high-fat diet, free diet and drinking water. Intragastrically administrated with synthetic D4, 0.75 mg-3 mg/Kg body weight, 0.2 ml, once/day for 8 weeks.
D5 group (i.e. high-fat diet+D5 intragastric administration group): fed with high-fat diet, free diet and drinking water. Intragastrically administrated with synthetic D5, 0.75 mg-3 mg/Kg body weight, 0.2 ml, once/day for 8 weeks.
D6 group (i.e. high-fat diet+D6 intragastric administration group): fed with high-fat diet, free diet and drinking water. Intragastrically administrated with synthetic D6, 0.75 mg-3 mg/Kg body weight, 0.2 ml, once/day for 8 weeks.
D7 group (i.e. high-fat diet+D7 intragastric administration group): fed with high-fat diet, free diet and drinking water. Intragastrically administrated with synthetic D7, 0.75 mg-3 mg/Kg body weight, 0.2 ml, once/day for 8 weeks.
D8 group (i.e. high-fat diet+D8 intragastric administration group): fed with high-fat diet, free diet and drinking water. Intragastrically administrated with synthetic D8, 0.75 mg-3 mg/Kg body weight, 0.2 ml, once/day for 8 weeks.
D9 group (i.e. high-fat diet+D9 intragastric administration group): fed with high-fat diet, free diet and drinking water. Intragastrically administrated with synthetic D9, 0.75 mg-3 mg/Kg body weight, 0.2 ml, once/day for 8 weeks.
D10 group (i.e. high-fat diet+D10 intragastric administration group): fed with high-fat diet, free diet and drinking water. Intragastrically administrated with synthetic D10, 0.75 mg-3 mg/Kg body weight, 0.2 ml, once/day for 8 weeks.
The feed intake was tracked every week. After the experiment, the mice were weighed and photographs were taken to compare the body size of the mice. After that, the mice were killed by cervical dislocation. […]

## RTRYCRTGR [D3]
[1]
  fluorescence intensity of UGN in ileal cells: significantly increased
[2]
  abundance of Bacteroides and A. muciniphila (LEfSc analysis): significant increase
  abundance of Prevotella, Desulfovibrio and Lawsonia (LEfSc analysis): significant decrease
  fecal flora (diversity analysis and PCOA) vs HFD group: significantly different from that of the HFD group
[3]; 8 weeks
  body size compared with the HFD group: smaller than that of the HFD group
  subcutaneous and visceral fat weight (inguinal subcutaneous, epididymis, perirenal) vs HFD group: significantly lower than that of the HFD group
[3]; after 3-4 weeks
  weekly feed intake vs control HFD group: significant difference in feed intake
[3]; intragastric 0.75 mg-3 mg/Kg once/day, after 8 weeks
  body weight decrease compared with the HFD group: 12.06%
